According to publication PMC6199744, “Development of Chemical Proteomics for the Folateome and Analysis of the Kinetoplastid Folateome” (ACS Infectious Diseases, 2018):
Read-outs that look alike come from different tables or passages of the source.

Key:
Type in all cases: binding
[1] = biological target: T1, HeLa cell extract proteins (Homo sapiens, UniProt O75153)
T1 construct: endogenous in cells; host or cells: HeLa cell extract
T1 sequence (O75153 1-1309): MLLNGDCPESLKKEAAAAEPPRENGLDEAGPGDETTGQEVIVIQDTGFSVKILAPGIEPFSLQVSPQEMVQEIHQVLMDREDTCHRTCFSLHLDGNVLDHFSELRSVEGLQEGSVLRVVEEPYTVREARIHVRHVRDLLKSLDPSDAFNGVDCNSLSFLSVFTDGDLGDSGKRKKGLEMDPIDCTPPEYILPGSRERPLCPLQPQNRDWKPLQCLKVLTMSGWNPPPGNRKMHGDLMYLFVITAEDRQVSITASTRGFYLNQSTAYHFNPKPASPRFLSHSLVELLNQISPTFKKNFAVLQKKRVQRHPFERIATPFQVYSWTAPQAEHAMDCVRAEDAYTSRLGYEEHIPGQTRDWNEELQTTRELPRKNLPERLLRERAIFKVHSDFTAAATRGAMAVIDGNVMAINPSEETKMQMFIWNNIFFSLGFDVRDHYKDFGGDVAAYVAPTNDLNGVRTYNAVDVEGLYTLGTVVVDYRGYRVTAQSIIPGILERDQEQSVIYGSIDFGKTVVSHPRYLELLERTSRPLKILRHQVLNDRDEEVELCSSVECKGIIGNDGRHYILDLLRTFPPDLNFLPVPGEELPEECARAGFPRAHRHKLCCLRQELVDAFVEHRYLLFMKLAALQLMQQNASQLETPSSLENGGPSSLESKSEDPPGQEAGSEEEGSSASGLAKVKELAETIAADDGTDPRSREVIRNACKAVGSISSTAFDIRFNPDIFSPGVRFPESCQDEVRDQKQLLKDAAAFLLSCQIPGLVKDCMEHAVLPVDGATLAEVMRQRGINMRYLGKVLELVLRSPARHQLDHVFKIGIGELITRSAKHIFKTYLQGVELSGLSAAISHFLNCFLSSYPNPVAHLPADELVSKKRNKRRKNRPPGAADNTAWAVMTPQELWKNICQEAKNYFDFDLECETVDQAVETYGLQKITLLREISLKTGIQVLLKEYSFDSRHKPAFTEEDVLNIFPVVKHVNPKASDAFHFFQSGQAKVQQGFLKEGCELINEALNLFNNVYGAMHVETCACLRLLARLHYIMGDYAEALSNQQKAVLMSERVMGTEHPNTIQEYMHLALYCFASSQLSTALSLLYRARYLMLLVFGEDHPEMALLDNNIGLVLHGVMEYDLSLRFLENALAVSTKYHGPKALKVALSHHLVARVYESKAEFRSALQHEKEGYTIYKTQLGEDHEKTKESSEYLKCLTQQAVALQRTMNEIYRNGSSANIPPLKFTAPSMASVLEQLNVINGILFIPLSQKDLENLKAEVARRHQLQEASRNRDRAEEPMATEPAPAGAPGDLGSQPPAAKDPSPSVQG

[2] = biological target: T2, HeLa cell extract proteins (Homo sapiens, UniProt O95619)
T2 construct: endogenous in cells; host or cells: HeLa cell extract
T2 sequence (O95619 whole entry): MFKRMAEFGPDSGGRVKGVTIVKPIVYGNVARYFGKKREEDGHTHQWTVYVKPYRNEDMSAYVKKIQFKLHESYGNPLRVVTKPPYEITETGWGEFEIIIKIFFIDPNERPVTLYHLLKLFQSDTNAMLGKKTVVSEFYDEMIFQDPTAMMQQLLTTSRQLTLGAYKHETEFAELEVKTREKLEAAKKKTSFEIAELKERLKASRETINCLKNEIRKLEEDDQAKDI

[3] = biological target: T3, HeLa cell extract proteins (Homo sapiens, UniProt Q08380)
T3 construct: endogenous in cells; host or cells: HeLa cell extract
T3 sequence (Q08380 19-585): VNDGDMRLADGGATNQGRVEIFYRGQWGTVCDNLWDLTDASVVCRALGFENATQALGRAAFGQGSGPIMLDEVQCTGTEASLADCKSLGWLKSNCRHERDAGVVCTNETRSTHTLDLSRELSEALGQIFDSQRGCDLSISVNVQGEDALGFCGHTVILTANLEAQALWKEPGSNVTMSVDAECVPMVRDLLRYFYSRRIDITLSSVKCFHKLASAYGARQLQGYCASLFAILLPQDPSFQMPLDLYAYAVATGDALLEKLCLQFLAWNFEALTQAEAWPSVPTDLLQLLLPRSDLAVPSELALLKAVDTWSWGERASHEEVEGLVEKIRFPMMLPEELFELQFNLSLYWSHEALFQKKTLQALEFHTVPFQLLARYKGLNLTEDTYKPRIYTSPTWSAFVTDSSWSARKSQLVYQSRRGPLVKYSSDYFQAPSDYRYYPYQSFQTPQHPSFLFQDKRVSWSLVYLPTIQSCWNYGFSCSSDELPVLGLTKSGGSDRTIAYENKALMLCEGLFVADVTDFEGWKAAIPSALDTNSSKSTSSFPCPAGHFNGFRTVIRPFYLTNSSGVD

[4] = biological target: T4, HeLa cell extract proteins (Homo sapiens, UniProt O95372)
T4 construct: endogenous in cells; host or cells: HeLa cell extract
T4 sequence (O95372 whole entry): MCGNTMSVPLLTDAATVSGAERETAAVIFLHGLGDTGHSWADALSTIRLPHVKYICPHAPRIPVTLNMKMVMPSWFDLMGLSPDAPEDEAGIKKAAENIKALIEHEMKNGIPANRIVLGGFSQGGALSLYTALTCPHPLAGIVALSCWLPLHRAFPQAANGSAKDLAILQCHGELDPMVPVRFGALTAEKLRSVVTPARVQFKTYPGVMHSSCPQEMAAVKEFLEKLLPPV

[5] = biological target: T5, HeLa cell extract proteins (Homo sapiens, UniProt Q96AE4)
T5 construct: endogenous in cells; host or cells: HeLa cell extract
T5 sequence (Q96AE4 1-644): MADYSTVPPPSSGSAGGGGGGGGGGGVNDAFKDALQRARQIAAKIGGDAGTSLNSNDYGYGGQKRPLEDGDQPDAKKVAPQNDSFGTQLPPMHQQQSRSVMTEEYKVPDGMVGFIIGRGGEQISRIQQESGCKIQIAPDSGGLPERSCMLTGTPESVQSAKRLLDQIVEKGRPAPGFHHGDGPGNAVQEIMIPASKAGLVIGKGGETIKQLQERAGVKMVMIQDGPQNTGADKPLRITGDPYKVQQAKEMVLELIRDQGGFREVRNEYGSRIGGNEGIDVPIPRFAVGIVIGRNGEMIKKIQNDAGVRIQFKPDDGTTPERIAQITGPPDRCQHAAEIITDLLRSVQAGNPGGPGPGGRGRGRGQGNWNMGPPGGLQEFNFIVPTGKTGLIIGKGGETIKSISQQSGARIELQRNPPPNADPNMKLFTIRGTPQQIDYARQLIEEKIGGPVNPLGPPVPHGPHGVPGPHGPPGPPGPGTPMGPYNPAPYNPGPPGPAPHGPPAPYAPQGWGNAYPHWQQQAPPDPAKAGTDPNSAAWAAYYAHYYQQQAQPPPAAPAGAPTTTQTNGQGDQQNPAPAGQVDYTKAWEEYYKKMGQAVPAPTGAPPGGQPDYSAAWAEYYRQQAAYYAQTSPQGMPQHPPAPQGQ

[6] = biological target: T6, HeLa cell extract proteins (Homo sapiens, UniProt P53701)
T6 construct: endogenous in cells; host or cells: HeLa cell extract
T6 sequence (P53701 1-268): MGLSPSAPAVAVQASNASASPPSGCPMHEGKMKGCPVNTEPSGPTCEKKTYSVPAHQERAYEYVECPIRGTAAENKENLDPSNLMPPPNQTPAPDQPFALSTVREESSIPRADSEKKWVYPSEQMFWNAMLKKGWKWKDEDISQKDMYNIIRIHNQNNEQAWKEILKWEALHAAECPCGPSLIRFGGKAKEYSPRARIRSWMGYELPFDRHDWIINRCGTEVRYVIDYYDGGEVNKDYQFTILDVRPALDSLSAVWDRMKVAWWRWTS

[7] = HeLa, protein LGALS3BP (GALECTIN-3-BINDING PROTEIN PRECURSOR)

Row | SMILES | fold changes relative to vehicle control ([1]; protein KIAA0664, HeLa) | fold changes relative to vehicle control ([2]; HeLa, captured protein YEATS4) | fold changes relative to vehicle control [3, 7] | fold changes relative to vehicle control ([4]; protein LYPLA2, HeLa) | fold changes relative to vehicle control ([5]; HeLa, captured protein FUBP1) | fold changes relative to vehicle control ([6]; HeLa, protein HCCS) | fold changes relative to vehicle control [1] | fold changes relative to vehicle control [2] | fold changes relative to vehicle control [3] | fold changes relative to vehicle control [4] | fold changes relative to vehicle control [5] | fold changes relative to vehicle control [6] | fold changes relative to vehicle control ([1]; HeLa, protein KIAA0664) | fold changes relative to vehicle control ([2]; HeLa, protein YEATS4) | fold changes relative to vehicle control ([3]; protein LGALS3BP, HeLa) | fold changes relative to vehicle control ([4]; HeLa, protein LYPLA2) | fold changes relative to vehicle control ([5]; protein FUBP1, HeLa)
1 | Nc1nc2c(c(=O)[nH]1)N(C=O)C(CNc1ccc(C(=O)N[C@@H](CCC(=O)O)C(=O)O)cc1)CN2 (stereo partly drawn) [LEU, leucovorin] | 1.17 | 1.09 | 1.08 | 0.89 | 1.09 | 0.88 |  |  |  |  |  |  |  |  |  |  | 
2 | Nc1nc2[nH]cc(CCc3ccc(C(=O)N[C@@H](CCC(=O)O)C(=O)O)cc3)c2c(=O)[nH]1 [PTX, pemetrexed] |  |  |  |  |  |  | 1.07 | 0.99 | 1.13 | 0.99 | 1.17 | 0.88 |  |  |  |  | 
3 | CCCCCCOc1ccc(Cc2cnc(N)nc2N)cc1 [compound 1] |  |  |  |  |  | 0.84 |  |  |  |  |  |  | 1.17 | 1.04 | 0.97 | 0.82 | 1.24
4 | CCCCCCOc1cccc(Cc2cnc(N)nc2N)c1 [compound 2] |  |  |  |  |  | 0.9 |  |  |  |  |  |  | 1.25 | 0.92 | 0.95 | 1.19 | 1.48
5 | Nc1nc2cccc(-c3ccccc3)c2n1Cc1ccc(Cl)c(Cl)c1 [compound 3] |  |  |  |  |  | 0.96 |  |  |  |  |  |  | 1.11 | 0.99 | 1.07 | 0.97 | 1
6 | NCCOCCOCC(=O)Nc1nc2ncc(CNc3ccc(C(=O)NC(CCC(=O)O)C(=O)O)cc3)nc2c(=O)[nH]1 (stereo not drawn) [compound 6] | 1.01 | 0.81 | 1.02 | 1.09 | 1.28 | 0.75 |  |  |  |  |  |  |  |  |  |  | 
7 | NCCCNc1ccc(C(=O)NC(CCC(=O)O)C(=O)O)cc1 (stereo not drawn) [compound 7] | 1.12 | 1.29 | 1.09 | 1.01 | 1 | 0.98 |  |  |  |  |  |  |  |  |  |  | 
